Earlier results, collected in patent US20070275382A1, “Biomarkers for the Efficacy of Somatostatin Analogue Treatment” (priority 2003, published 2007).
Where two headings read alike, the source gives them in different places.

How the values were obtained:
[1] = biological target: hSST-2 (Homo sapiens, UniProt P30874); settings: background statement, cited from earlier work
[2] = biological target: hSST-3 (Homo sapiens, UniProt P32745); settings: background statement; cited from earlier work
hSST-3, sequence (P32745 whole entry): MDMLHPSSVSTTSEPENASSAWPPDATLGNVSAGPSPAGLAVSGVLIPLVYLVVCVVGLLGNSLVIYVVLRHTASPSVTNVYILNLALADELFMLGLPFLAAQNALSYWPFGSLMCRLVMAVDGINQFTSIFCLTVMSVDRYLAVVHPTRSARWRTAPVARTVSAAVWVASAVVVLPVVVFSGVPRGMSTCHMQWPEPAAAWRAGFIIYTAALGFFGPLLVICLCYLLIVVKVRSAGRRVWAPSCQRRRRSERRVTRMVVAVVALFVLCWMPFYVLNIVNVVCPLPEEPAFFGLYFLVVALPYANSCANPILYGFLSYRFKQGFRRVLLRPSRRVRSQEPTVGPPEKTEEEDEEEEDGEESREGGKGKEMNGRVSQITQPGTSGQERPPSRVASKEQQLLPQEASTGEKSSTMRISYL

hSST-2, sequence (P30874 whole entry): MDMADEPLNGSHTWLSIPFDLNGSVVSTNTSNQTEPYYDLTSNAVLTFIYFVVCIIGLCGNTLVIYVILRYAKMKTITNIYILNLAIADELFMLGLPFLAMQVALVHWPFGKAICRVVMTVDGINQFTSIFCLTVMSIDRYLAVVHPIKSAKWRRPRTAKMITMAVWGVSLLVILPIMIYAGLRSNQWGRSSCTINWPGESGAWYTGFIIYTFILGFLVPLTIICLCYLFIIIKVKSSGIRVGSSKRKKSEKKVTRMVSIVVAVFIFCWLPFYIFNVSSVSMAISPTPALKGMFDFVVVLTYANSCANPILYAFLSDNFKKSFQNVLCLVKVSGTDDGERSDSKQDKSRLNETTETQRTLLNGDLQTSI

Structure (SMILES)	affinity/binding to somatostatin receptor subtype 2 (SSTR2) [1]	affinity/binding to somatostatin receptor subtype 2 (SSTR2) ([1]; listed as Sandostatin®)	binding to SSTR3 [2]
CC(C)[C@@H]1NC(=O)[C@H](CCCCN)NC(=O)[C@@H](Cc2c[nH]c3ccccc23)NC(=O)[C@H](Cc2ccc(O)cc2)NC(=O)[C@@H](NC(=O)[C@H](N)Cc2ccc3ccccc3c2)CSSC[C@@H](C(=O)N[C@H](C(N)=O)[C@@H](C)O)NC1=O [lanreotide]	selective high affinity		
C[C@@H](O)[C@@H]1NC(=O)[C@H](CCCCN)NC(=O)[C@@H](Cc2c[nH]c3ccccc23)NC(=O)[C@H](Cc2ccccc2)NC(=O)[C@@H](NC(=O)[C@H](N)Cc2ccccc2)CSSC[C@@H](C(=O)N[C@H](CO)[C@@H](C)O)NC1=O [octreotide]	selective high affinity	binds mainly to SSTR2	to some extent
